Results reported in patent US10793526B2, “Hydantoin derivative compounds, methods of use and methods of treatment” (University of South Florida, priority 2016, dated 2020).

Key:
[1] = system: methicillin-resistant S. aureus (MRSA, ATCC 33591); assay: Minimum inhibitory concentration (MIC) assay, MRSA; type: cell-based, Staphylococcus aureus
Protocol: (§1) Minimum inhibitory concentrations (MICs) assay.^2
(§2) All compounds were tested against six different bacteria strains: methicillin-resistant S. aureus (MRSA, ATCC 33591), E. coli (ATCC 25922), methicillin-resistant S. epidermidis (MRSE, RP62A), K. pneumoniae (ATCC 13383), vancomycin-resistant Enterococcus faecalis (VREF, ATCC 700802), P. aeruginosa (ATCC 27853). One colony of each bacteria was inoculated in 4 mL TSB buffer at 37° C. overnight, which was then diluted 100 times, and the bacteria were allowed to grow to the mid-logarithmic phase. 50 μL hydantoin compounds in 2-fold serial dilution of TSB were added in the 96-well plate, then 50 μL diluted bacterial in TSB medium (1×10^6 CFU/mL) was added to each well. After 16 h of incubation at 37° C., the absorption at 600 nm wavelength on a Biotek Synergy HT microtiter plate reader was recorded. Minimum inhibitory concentrations were determined as the lowest concentrations that inhibited bacteria growth completely.

[2] = system: methicillin-resistant S. epidermidis (MRSE, RP62A); assay: Minimum inhibitory concentration (MIC) assay, MRSE; type: cell-based, Staphylococcus epidermidis; conditions: Gram positive, 16 h incubation
Protocol: as §1, §2

[3] = system: vancomycin-resistant Enterococcus faecalis (VREF, ATCC 700802); assay: Minimum inhibitory concentration (MIC) assay, VREF; type: cell-based; conditions: Gram positive, 16 h incubation
Protocol: as §1, §2

[4] = system: E. coli (ATCC 25922); assay: Minimum inhibitory concentration (MIC) assay, E. coli; type: cell-based, Escherichia coli; conditions: Gram negative, 16 h incubation
Protocol: as §1, §2

[5] = system: P. aeruginosa (ATCC 27853); assay: Minimum inhibitory concentration (MIC) assay, P. aeruginosa; type: cell-based, Pseudomonas aeruginosa; conditions: Gram negative; ATCC 27853; 16 h incubation
Protocol: as §1, §2

[6] = system: K. pneumoniae (ATCC 13383); assay: Minimum inhibitory concentration (MIC) assay, K. pneumoniae; type: cell-based, Klebsiella pneumoniae; conditions: Gram negative, 16 h incubation
Protocol: as §1, §2

[7] = system: red blood cells (RBCs) of mice; assay: Hemolytic assay; type: cell-based
Protocol: Fresh red blood cells (RBCs) of mice were washed with 1×PBS buffer and centrifuged 10 min at 3500 rpm for 3 times until the supernatant was clear, then RBCs were diluted into 5% v/v suspension in 1×PBS. 50 μL compounds in PBS were 2-fold serially diluted in a 96-well plate, and incubated with 50 μL RBCs suspension for 1 h at 37° C. The mixture was then centrifuged for 10 min at 3500 rpm. Subsequently, 30 μL of the supernatant was added to 100 μL PBS, then the absorbance of mixture was read on a Biotek Synergy HT plate reader at 540 nm. The hemolytic activity was calculated by the formula % hemolysis=(Abssample−AbsPBS)/(AbsTriton−AbsPBS)×100%. 1% Triton X-100 were used as the positive control and 1×PBS buffer was used as the negative control.

[8] = system: panel of Gram-positive and Gram-negative bacteria; assay: Antimicrobial activity against the whole panel of bacteria; type: cell-based; conditions: statement relating activity to retention time
Protocol: as §1, §2

[9] = system: MRSA-induced lung inflammation; assay: Rat model of MRSA-induced pneumonia, pathological analysis (H&E); type: in vivo; conditions: 10 mg/kg i.v.
Protocol: The rat model of MRSA-induced pneumonia.^4, 5
The protocol of animal studies was approved by the institutional committee for animal care of Nanjing University, and the experiments were conducted following the regulation of the National Ministry of Health of China. In Brief, male Wistar rats (6-8 weeks, ˜200 g in average weight) were subjected to fast for 12 h. Next, rats were anesthetized by intraperitoneal administration of 0.35 g/kg of chloral hydrate. To induce MRSA pneumonia, the trachea of rats were exposed, to which 100 μL PBS containing 2×10^6 CFU/mL MRSA in PBS was slowly injected. The rats were retained upright for 1 min, and the cut was sealed. The MRSA infection was allowed to develop for 24 h.
The hydantoin compound 22 or vancomycin were used as antibiotics in the study. In brief, a dose of 10 mg/kg of the drug was injected to the tested rats intravenously. On the day of 3 and 5, rats were sacrificed, and lung sections were stained with hematoxylin and eosin (H&E), and their morphology was investigated under a light microscope at 100× magnification. The existence (indicated by the infiltration of neutrophils) and the extent of possible inflammatory response (indicated by the integrity of the alveolar structure and endothelium cilium) were recorded from at least five randomly picked sections by an experienced physician.

MIC (μg/mL) MRSA ([1]; Gram positive, ATCC 33591, 16 h incubation) | MIC of MRSA ([1]; Table 2) | MIC (μg/mL) MRSE [2] | MIC (μg/mL) VREF [3] | MIC (μg/mL) E. coli [4] | MIC (μg/mL) P.A. [5] | MIC (μg/mL) K.P. [6] | Structure (SMILES) | HC50 [7] | antibacterial activity of compounds with HPLC RT values less than 26 min [8] | lung inflammation (H&E staining), day not given [9]
25 µg/mL | 25 µg/mL | 25 µg/mL | 25 µg/mL | 12.5 µg/mL | 12.5 µg/mL | 12.5 µg/mL | CCCCCCCCCCCC(=O)N[C@@H](CCCCN)CN1CC(=O)N(c2ccc(OC)cc2)C1=O [Compound 18, (S)—N-(6-amino-1-(3-(4-methoxyphenyl)-2,4-dioxoimidazolidin-1-yl)hexan-2-yl)dodecan amide] | 200 µg/mL | no apparent antibacterial activity | 
 |  |  |  |  |  |  | CN[C@H](CC(C)C)C(=O)N[C@H]1C(=O)N[C@@H](CC(N)=O)C(=O)N[C@H]2C(=O)N[C@H]3C(=O)N[C@H](C(=O)N[C@H](C(=O)O)c4cc(O)cc(O)c4-c4cc3ccc4O)[C@H](O)c3ccc(c(Cl)c3)Oc3cc2cc(c3O[C@@H]2O[C@H](CO)[C@@H](O)[C@H](O)[C@H]2O[C@H]2C[C@](C)(N)[C@H](O)[C@H](C)O2)Oc2ccc(cc2Cl)[C@H]1O [vancomycin, reference compound] |  |  | alleviated condition
